# According to PubChem BioAssay (NCI):
#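 Tested at 5 concentrations; 48 h exposure; 96-well plates; endpoints linearly interpolated, else capped at highest concentration. TGI: concentration producing complete growth inhibition.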
# Experiments:
# Test in all cases: NCI-60 cell line screen, 48 h
# [1] = system: UACC-62 melanoma
# [2] = system: M19-MEL melanoma
# [3] = system: SW-620 colon
# [4] = system: ACHN renal
# [5] = system: SK-MEL-2 melanoma
# [6] = system: SR leukemia
# [7] = system: HCT-15 colon
# [8] = system: OVCAR-8 ovarian
# [9] = system: DLD-1 colon
# [10] = system: DMS 114 small cell lung
# [11] = system: UACC-257 melanoma
# [12] = system: LOX IMVI melanoma
# [13] = system: U251 CNS
# [14] = system: HOP-62 NSCLC
# [15] = system: IGROV1 ovarian
# [16] = system: RXF-631 renal
# [17] = system: NCI-H522 lung
# [18] = system: OVCAR-3 ovarian
# [19] = system: SF-268 CNS
# [20] = system: SF-295 CNS
# [21] = system: RPMI-8226 leukemia
# [22] = system: EKVX NSCLC
# [23] = system: DMS 273 small cell lung
# [24] = system: NCI-H460 lung
# [25] = system: MALME-3M melanoma
# [26] = system: OVCAR-4 ovarian
# [27] = system: K-562 leukemia
# [28] = system: HL-60(TB) leukemia
# [29] = system: LXFL 529 NSCLC
# [30] = system: HCT-116 colon
# [31] = system: HOP-92 NSCLC
# [32] = system: 786-0 renal
# [33] = system: NCI-H23 lung
# [34] = system: CCRF-CEM leukemia
# [35] = system: SK-MEL-5 melanoma
# [36] = system: OVCAR-5 ovarian
# [37] = system: M14 melanoma
# [38] = system: KM20L2 colon
# [39] = system: MOLT-4 leukemia
# [40] = system: HCC-2998 colon
# [41] = system: CAKI-1 renal
# [42] = system: SNB-75 CNS
# [43] = system: A549 NSCLC
# [44] = system: A498 renal
# [45] = system: COLO 205 colon
# [46] = system: SNB-78 CNS
# [47] = system: SK-OV-3 ovarian
# [48] = system: KM12 colon
# [49] = system: NCI-H226 lung
# [50] = system: SNB-19 CNS
# [51] = system: UO-31 renal
# [52] = system: HT29 colon
# [53] = system: HOP-18 NSCLC
# [54] = system: TK-10 renal
# [55] = system: SK-MEL-28 melanoma
# [56] = system: SN12C renal
# [57] = system: SF-539 CNS
# [58] = system: XF 498 CNS
# [59] = system: RXF 393 renal
structure (smiles),measurement,setting,value
COc1ccccc1NC(=O)C1=C(C)NC(C)=C(C(=O)Nc2ccccc2OC)C1c1ccccc1OC,TGI,[1],> 100 µM
same,TGI,[2],> 100 µM
same,TGI,[3],> 100 µM
same,TGI,[4],> 100 µM
same,TGI,[5],> 100 µM
same,TGI,[6],> 100 µM
same,TGI,[7],> 100 µM
same,TGI,[8],> 100 µM
same,TGI,[9],> 100 µM
same,TGI,[10],> 100 µM
same,TGI,[11],> 100 µM
same,TGI,[12],> 100 µM
same,TGI,[13],> 100 µM
same,TGI,[14],> 100 µM
same,TGI,[15],> 100 µM
same,TGI,[16],> 100 µM
same,TGI,[17],> 100 µM
same,TGI,[18],> 100 µM
same,TGI,[19],> 100 µM
same,TGI,[20],> 100 µM
same,TGI,[21],> 100 µM
same,TGI,[22],> 100 µM
same,TGI,[23],> 100 µM
same,TGI,[24],> 100 µM
same,TGI,[25],> 100 µM
same,TGI,[26],> 100 µM
same,TGI,[27],> 100 µM
same,TGI,[28],> 100 µM
same,TGI,[29],> 100 µM
same,TGI,[30],> 100 µM
same,TGI,[31],> 100 µM
same,TGI,[32],> 100 µM
same,TGI,[33],> 100 µM
same,TGI,[34],> 100 µM
same,TGI,[35],> 100 µM
same,TGI,[36],> 100 µM
same,TGI,[37],> 100 µM
same,TGI,[38],> 100 µM
same,TGI,[39],> 100 µM
same,TGI,[40],> 100 µM
same,TGI,[41],> 100 µM
same,TGI,[42],69 µM
same,TGI,[43],> 100 µM
same,TGI,[44],> 100 µM
same,TGI,[45],> 100 µM
same,TGI,[46],> 100 µM
same,TGI,[47],> 100 µM
same,TGI,[48],> 100 µM
same,TGI,[49],> 100 µM
same,TGI,[50],> 100 µM
same,TGI,[51],> 100 µM
same,TGI,[52],> 100 µM
same,TGI,[53],> 100 µM
same,TGI,[54],> 100 µM
same,TGI,[55],> 100 µM
same,TGI,[56],> 100 µM
same,TGI,[57],> 100 µM
CNC(=O)CN(CC(N)=O)C(=O)NC,TGI,[1],> 100 µM
same,TGI,[2],> 100 µM
same,TGI,[3],> 100 µM
same,TGI,[4],> 100 µM
same,TGI,[5],> 100 µM
same,TGI,[6],> 100 µM
same,TGI,[7],> 100 µM
same,TGI,[8],> 100 µM
same,TGI,[9],> 100 µM
same,TGI,[12],> 100 µM
same,TGI,[13],> 100 µM
same,TGI,[14],> 100 µM
same,TGI,[15],> 100 µM
same,TGI,[58],> 100 µM
same,TGI,[16],> 100 µM
same,TGI,[17],> 100 µM
same,TGI,[18],> 100 µM
same,TGI,[19],> 100 µM
same,TGI,[20],> 100 µM
same,TGI,[21],> 100 µM
same,TGI,[22],> 100 µM
same,TGI,[23],> 100 µM
same,TGI,[24],> 100 µM
same,TGI,[25],> 100 µM
same,TGI,[26],> 100 µM
same,TGI,[27],> 100 µM
same,TGI,[28],> 100 µM
same,TGI,[29],> 100 µM
same,TGI,[31],> 100 µM
same,TGI,[32],> 100 µM
same,TGI,[33],> 100 µM
same,TGI,[34],> 100 µM
same,TGI,[35],> 100 µM
same,TGI,[36],> 100 µM
same,TGI,[37],> 100 µM
same,TGI,[38],> 100 µM
same,TGI,[39],> 100 µM
same,TGI,[40],> 100 µM
same,TGI,[41],> 100 µM
same,TGI,[42],> 100 µM
same,TGI,[43],> 100 µM
same,TGI,[44],> 100 µM
same,TGI,[45],> 100 µM
same,TGI,[59],> 100 µM
same,TGI,[46],> 100 µM
same,TGI,[47],> 100 µM
same,TGI,[48],> 100 µM
same,TGI,[49],> 100 µM
same,TGI,[50],> 100 µM
same,TGI,[51],> 100 µM
same,TGI,[52],> 100 µM
same,TGI,[54],> 100 µM
same,TGI,[55],> 100 µM
same,TGI,[57],> 100 µM
CCCCCCCCCCCCNC1(C)CNCCCNCCNCCCNC1,TGI,[1],3.25 µM
same,TGI,[2],3.13 µM
same,TGI,[3],3.27 µM
same,TGI,[4],3.41 µM
same,TGI,[5],3.34 µM
same,TGI,[6],3.58 µM
same,TGI,[8],2.92 µM
same,TGI,[9],3.07 µM
same,TGI,[11],3.19 µM
same,TGI,[12],3.25 µM
same,TGI,[13],2.3 µM
same,TGI,[14],3.83 µM
same,TGI,[15],2.35 µM
same,TGI,[58],3.35 µM
same,TGI,[16],3.57 µM
same,TGI,[17],3.22 µM
same,TGI,[18],3.28 µM
same,TGI,[20],2.88 µM
same,TGI,[21],3.55 µM
same,TGI,[22],12.8 µM
same,TGI,[23],1.6 µM
same,TGI,[24],2.69 µM
same,TGI,[25],3.47 µM
same,TGI,[26],3.82 µM
same,TGI,[29],3.05 µM
same,TGI,[30],2.59 µM
same,TGI,[31],4.55 µM
same,TGI,[32],3.14 µM
same,TGI,[33],3.12 µM
same,TGI,[35],3.06 µM
same,TGI,[36],4.54 µM
same,TGI,[37],3.21 µM
same,TGI,[38],3.1 µM
same,TGI,[39],3.05 µM
same,TGI,[40],3.22 µM
same,TGI,[41],3.63 µM
same,TGI,[42],3.15 µM
same,TGI,[43],3.2 µM
same,TGI,[45],3.2 µM
same,TGI,[59],2.93 µM
same,TGI,[47],3.21 µM
same,TGI,[48],2.89 µM
same,TGI,[49],3.21 µM
same,TGI,[51],5.83 µM
same,TGI,[52],2.95 µM
same,TGI,[53],3.07 µM
same,TGI,[54],3.1 µM
same,TGI,[55],3.29 µM
same,TGI,[56],3.05 µM
same,TGI,[57],3.29 µM
